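48-hour exposure; five concentrations; linearly interpolated endpoints. Here, GI50 denotes the concentration required for 50% inhibition of growth. Definition used: TGI = concentration required for complete inhibition of growth.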
Key:
Assay in all cases: DTP human tumour cell line panel, 48 h
SW-620 colon = test system: SW-620 colon
NCI-H226 lung = test system: NCI-H226 lung
SN12C renal = test system: SN12C renal
OVCAR-4 ovarian = test system: OVCAR-4 ovarian
IGROV1 ovarian = test system: IGROV1 ovarian
A498 renal = test system: A498 renal
OVCAR-5 ovarian = test system: OVCAR-5 ovarian
NCI-H23 lung = test system: NCI-H23 lung
NCI/ADR-RES ovarian = test system: NCI/ADR-RES ovarian
PC-3 prostate = test system: PC-3 prostate

| Structure (SMILES) | TGI (SW-620 colon) [µM] | TGI (NCI-H226 lung) [µM] | TGI (SN12C renal) [µM] | TGI (OVCAR-4 ovarian) [µM] | TGI (IGROV1 ovarian) [µM] | TGI (A498 renal) [µM] | TGI (OVCAR-5 ovarian) [µM] | TGI (NCI-H23 lung) [µM] | GI50 (SW-620 colon) [µM] | GI50 (NCI/ADR-RES ovarian) [µM] | TGI (NCI/ADR-RES ovarian) [µM] | GI50 (OVCAR-5 ovarian) [µM] | GI50 (NCI-H23 lung) [µM] | GI50 (SN12C renal) [µM] | GI50 (OVCAR-4 ovarian) [µM] | GI50 (PC-3 prostate) [µM] | TGI (PC-3 prostate) [µM] | GI50 (IGROV1 ovarian) [µM] | GI50 (A498 renal) [µM] | GI50 (NCI-H226 lung) [µM] |
| --- | --- | --- | --- | --- | --- | --- | --- | --- | --- | --- | --- | --- | --- | --- | --- | --- | --- | --- | --- | --- |
| C[Si](C)(C)OC1(C#N)C2C3CC4C2C(=O)C2C4C3C21 (centres undefined) | > 100 | > 100 | > 100 | > 100 | > 100 | > 100 | – | – | – | – | – | – | – | – | – | – | – | – | – | – |
| Cc1cc2c(C)n(Cc3ccc(Cl)cc3Cl)nc2c(C#N)c1C | > 100 | > 56.2 | > 100 | > 100 | > 100 | > 100 | > 56.2 | > 100 | – | – | – | – | – | – | – | – | – | – | – | – |
| CCN=C1C=CC(=C(c2ccc(N)cc2)c2ccc(N(CC)CC)c(C)c2)C=C1 | 1.62 | – | 1.15 | 1.66 | 4.01 | 0.931 | 2.07 | 1.3 | 0.345 | 2.74 | > 100 | 0.317 | 0.318 | 0.201 | 0.298 | 0.205 | 4.33 | 0.537 | 0.24 | – |
| Nn1c(-c2ccccc2Cl)nc2ccccc2c1=O | > 100 | > 100 | > 100 | > 100 | > 100 | > 100 | > 100 | > 100 | – | – | – | – | – | – | – | – | – | – | – | – |
| O[C@H]1CO[C@H]2[C@@H]1OC[C@@H]2Oc1ccc(Nc2ccnc(Nc3ccc(O[C@H]4CO[C@H]5[C@@H]4OC[C@@H]5O)c(Cl)c3)n2)cc1Cl | 6.86 | 3.61 | 6.15 | 5.24 | 6.08 | – | 8.03 | 4.6 | 2.36 | 5.82 | > 100 | 2.47 | 1.49 | 1.59 | 1.54 | 2.26 | 11.2 | 0.757 | – | 1.48 |
| O=C1C(=O)N(c2ccc(Cl)c(Cl)c2)C(=O)C(=O)C1c1nc2ccccc2s1 | > 100 | > 100 | > 100 | > 100 | > 100 | > 100 | > 100 | > 100 | – | – | – | – | – | – | – | – | – | – | – | – |
| CCCCCCc1cc(C(=O)Nc2cccc(C(F)(F)F)c2)nc(N)n1 | > 100 | > 100 | > 100 | > 100 | > 100 | > 100 | > 100 | > 100 | – | – | – | – | – | – | – | – | – | – | – | – |
| CCCCCCCCCCCC(=O)OCCOCCOCCOCCOCCOCc1ccc(OC)cc1 | > 100 | > 100 | > 100 | > 100 | > 100 | > 100 | > 100 | > 100 | – | – | – | – | – | – | – | – | – | – | – | – |
| c1ccc(SC(CCCCC(Sc2ccccc2)Sc2ccccc2)Sc2ccccc2)cc1 | > 100 | – | > 100 | > 100 | – | > 100 | – | > 100 | – | – | – | – | – | – | – | – | – | – | – | – |
| Cc1c(C#N)c(=O)[nH]c(=O)n1CCN1CCN(C(=O)NCCCCCCNC(=O)N2CCN(CCn3c(C)c(C#N)c(=O)[nH]c3=O)CC2)CC1 | > 100 | – | > 100 | > 100 | > 100 | > 100 | – | > 100 | – | – | – | – | – | – | – | – | – | – | – | – |
| O=S(=O)(c1ccccc1)C(CN1CCCCC1)S(=O)(=O)c1ccccc1 | > 100 | > 100 | > 100 | > 100 | > 100 | – | > 100 | > 100 | – | – | – | – | – | – | – | – | – | – | – | – |
| COC1CC(OS(=O)(=O)c2ccc(C)cc2)C(OC(=O)c2ccccc2)C(C)O1 (centres undefined) | > 100 | > 100 | > 100 | > 100 | > 100 | > 100 | > 100 | > 100 | > 100 | – | – | > 100 | > 100 | > 100 | > 100 | – | – | > 100 | > 100 | > 100 |
| CCOC(=O)C(=O)Nc1c(CC)cccc1C(C)C | > 100 | > 100 | > 100 | > 100 | > 100 | > 100 | > 100 | > 100 | – | – | – | – | – | – | – | – | – | – | – | – |
| Cc1ccc(-c2cc(-c3ccc(C)cc3)nc(NCCNc3ccnc4cc(Cl)ccc34)n2)cc1 | 3.49 | 4.18 | 3.29 | 3.24 | 3.16 | 3.46 | 3.07 | 3.85 | 1.71 | – | – | 1.65 | 1.91 | 1.63 | 1.63 | – | – | 1.52 | 1.89 | 1.8 |
| O=C1OC(CCCl)(c2ccccc2)CC1CN1CCOCC1 (centres undefined) | 39.2 | 28 | 90.7 | > 100 | 50.1 | > 100 | > 100 | 23.7 | – | – | – | – | – | – | – | – | – | – | – | – |
| COc1ccc(OC)c(NC(=O)CCC/C(CC(=O)c2ccc(O)c(OC)c2)=N\NC(=O)C[N+](C)(C)C)c1 | > 100 | > 100 | > 100 | > 100 | > 100 | > 100 | > 100 | > 100 | – | – | – | – | – | – | – | – | – | – | – | – |
| Cc1cc(N(CCC#N)CCC#N)ccc1/C=C/C(=O)Nc1cccc(Cl)c1 | > 100 | > 100 | > 100 | > 100 | > 100 | > 100 | > 100 | > 100 | – | – | – | – | – | – | – | – | – | – | – | – |
| CCOC(=O)C(C)(c1cn(C)c2ccccc12)c1cn(C)c2ccccc12 | > 100 | > 100 | – | > 100 | > 100 | > 100 | > 100 | > 100 | – | – | – | – | – | – | – | – | – | – | – | – |
| Cn1c2c(cc(S(=O)(=O)c3ccccc3)c1=O)CCc1c-2cnn1-c1ccc(Cl)cc1 | – | 4.94 | – | 6.71 | > 100 | 5.03 | > 100 | > 100 | – | 3.09 | 8.94 | 3.37 | 4.65 | – | 2.5 | – | – | 3.22 | 1.06 | 2.22 |
| C=C1CC[C@@H]2[C@](C)(COC(C)=O)[C@@H](O)CC[C@@]2(C)[C@@H]1COc1ccc2ccc(=O)oc2c1 | > 100 | – | > 100 | > 100 | > 100 | – | > 100 | > 100 | > 100 | > 100 | > 100 | > 100 | > 100 | > 100 | > 100 | > 100 | > 100 | > 100 | – | – |
| CS(=O)(=O)Oc1cccc(/C=N/N=C(\N)NO)c1 | 63.4 | 95.6 | > 100 | > 100 | > 100 | > 100 | > 100 | > 100 | – | – | – | – | – | – | – | – | – | – | – | – |
